Values after ≈ are worked out from the molar mass of the structure shown. Active and inactive are the calls of the source. The rule behind the calls is not given here.
Tests used:
[1] = tested on: Staphylococcus epidermidis; test: Antibacterial activity against methicillin-resistant Staphylococcus epidermidis after 18 to 20 hrs by CLSI-protocol based broth microdilution method; type: functional
[2] = tested on: Staphylococcus aureus; test: Antibacterial activity against methicillin-resistant Staphylococcus aureus after 18 to 20 hrs by CLSI-protocol based broth microdilution method; type: functional
[3] = tested on: Neisseria gonorrhoeae; test: Antibacterial activity against Neisseria gonorrhoeae after 18 to 20 hrs by CLSI-protocol based agar microdilution method; type: functional
[4] = target: DNA topoisomerase 2-alpha (Homo sapiens, UniProt P11388); test: Inhibition of human topoisomerase-2alpha using catenated DNA as substrate after 30 mins by ethidium bromide-based gel electrophoresis
[5] = tested on: Staphylococcus epidermidis; test: Antibacterial activity against methicillin-sensitive Staphylococcus epidermidis after 18 to 20 hrs by CLSI-protocol based broth microdilution method; type: functional
[6] = target: Voltage-gated inwardly rectifying potassium channel KCNH2 (Homo sapiens, UniProt Q12809); test: Inhibition of human ERG expressed in CHO cells in at -80 mV holding potential by automated Qpatch clamp assay; type: cell-based
[7] = target: DNA gyrase (Staphylococcus aureus, UniProt P0A0K8+P20831)
Description: Inhibition of Staphylococcus aureus DNA gyrase supercoiling activity using relaxed pHOT-1 DNA as substrate after 60 mins by ethidium bromide-based gel electrophoresis

[8] = tested on: Streptococcus pyogenes; test: Antibacterial activity against Streptococcus pyogenes after 18 to 20 hrs by CLSI-protocol based broth microdilution method; type: functional
[9] = tested on: Staphylococcus aureus; test: Antibacterial activity against methicillin-sensitive Staphylococcus aureus after 18 to 20 hrs by CLSI-protocol based broth microdilution method; type: functional
[10] = Tmax in CD1 mouse at 10 mg/kg, po by LC-MS/MS analysis; type: ADME, organism-based; conditions: in vivo
[11] = Clearance in Sprague-Dawley rat at 10 mg/kg, iv by LC-MS/MS analysis; type: ADME, organism-based; conditions: in vivo
[12] = Solubility of the compound in pH 6.8 intestinal juice incubated at 37 degC for 24 hrs by LC/MS/MS analysis; type: physicochemical
[13] = Cmax in Sprague-Dawley rat at 100 mg/kg, po by LC-MS/MS analysis; type: ADME, organism-based; parameters: dose 100 mg/kg, route oral; conditions: in vivo
[14] = target: Cytochrome P450 2D6 (Homo sapiens, UniProt P10635); test: Inhibition of CYP2D6 in human liver microsomes using dextromethorphan as substrate preincubated for 10 mins followed by NADPH addition and measured for 15 mins by LC-MS/MS analysis; type: ADME
[15] = Clearance in Beagle dog at 2.5 mg/kg, iv by LC-MS/MS analysis; type: ADME, organism-based, Canis lupus familiaris; conditions: in vivo
[16] = Elimination half life in Beagle dog at 5 mg/kg, po by LC-MS/MS analysis; type: ADME, organism-based, Canis lupus familiaris; conditions: in vivo, read-out: beta t1/2 (converted)
[17] = target: Cytochrome P450 2C19 (Homo sapiens, UniProt P33261); test: Inhibition of CYP2C19 in human liver microsomes using mephenytoin as substrate preincubated for 10 mins followed by NADPH addition and measured for 15 mins by LC-MS/MS analysis; type: ADME
[18] = tested on: Staphylococcus aureus; test: Antibacterial activity against methicillin-resistant Staphylococcus aureus infected in Kunming mouse dosed subcutaneously at 0.5 and 4.0 hrs postinfection and measured at 7 to 14 days post treatment by Bliss method; type: functional; conditions: sc
[19] = Cmax in Beagle dog at 5 mg/kg, po by LC-MS/MS analysis; type: ADME, organism-based, Canis lupus familiaris; parameters: dose 5 mg/kg, route oral; conditions: in vivo
[20] = target: T1, Cytochrome P450 3A4 (Homo sapiens, UniProt P08684); test: Inhibition of CYP3A4 in human liver microsomes using testosterone as substrate preincubated for 10 mins followed by NADPH addition and measured for 15 mins by LC-MS/MS analysis; type: ADME
[21] = AUCt in Beagle dog at 2.5 mg/kg, iv by LC-MS/MS analysis; type: ADME, organism-based, Canis lupus familiaris; conditions: in vivo
[22] = Cmax in Sprague-Dawley rat at 10 mg/kg, po by LC-MS/MS analysis; type: ADME, organism-based; parameters: dose 10 mg/kg, route oral; conditions: in vivo
[23] = Volume of distribution at steady state in Beagle dog at 2.5 mg/kg, iv by LC-MS/MS analysis; type: ADME, organism-based, Canis lupus familiaris; conditions: in vivo, read-out: Vdss
[24] = Oral bioavailability in Beagle dog at 5 mg/kg by LC-MS/MS analysis; type: ADME, organism-based, Canis lupus familiaris; conditions: in vivo
[25] = target: T1, Cytochrome P450 3A4; test: Inhibition of CYP3A4 in human liver microsomes using midazolam as substrate preincubated for 10 mins followed by NADPH addition and measured for 15 mins by LC-MS/MS analysis; type: ADME
[26] = target: T2, Cytochrome P450 1A2 (Homo sapiens, UniProt P05177); test: Inhibition of CYP1A2 in human liver microsomes using phenacetin as substrate preincubated for 10 mins followed by NADPH addition and measured for 15 mins by LC-MS/MS analysis; type: ADME
T2 sequence (P05177 whole entry): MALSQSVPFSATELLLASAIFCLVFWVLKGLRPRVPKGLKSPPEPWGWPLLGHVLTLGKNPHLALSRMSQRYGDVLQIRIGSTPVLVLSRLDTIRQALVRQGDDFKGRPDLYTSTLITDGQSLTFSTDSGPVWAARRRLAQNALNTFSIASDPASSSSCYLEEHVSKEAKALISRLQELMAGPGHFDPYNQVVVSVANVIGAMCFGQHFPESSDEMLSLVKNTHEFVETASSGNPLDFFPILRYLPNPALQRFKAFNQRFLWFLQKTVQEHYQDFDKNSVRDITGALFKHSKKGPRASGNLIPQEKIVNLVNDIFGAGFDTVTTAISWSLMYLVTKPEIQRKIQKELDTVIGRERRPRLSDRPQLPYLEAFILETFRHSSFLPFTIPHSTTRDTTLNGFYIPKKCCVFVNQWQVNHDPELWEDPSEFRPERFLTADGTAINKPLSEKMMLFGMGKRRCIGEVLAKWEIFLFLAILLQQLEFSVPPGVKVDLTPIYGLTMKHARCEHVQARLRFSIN

[27] = Elimination half life in CD1 mouse at 10 mg/kg, po by LC-MS/MS analysis; type: ADME, organism-based; conditions: in vivo, read-out: beta t1/2 (converted)
[28] = Elimination half life in Sprague-Dawley rat at 10 mg/kg, po by LC-MS/MS analysis; type: ADME, organism-based; conditions: in vivo, read-out: beta t1/2 (converted)
[29] = Elimination half life in Sprague-Dawley rat at 100 mg/kg, po by LC-MS/MS analysis; type: ADME, organism-based; conditions: in vivo, read-out: beta t1/2 (converted)
[30] = AUCt in Sprague-Dawley rat at 10 mg/kg, iv by LC-MS/MS analysis; type: ADME, organism-based; conditions: in vivo
[31] = Cmax in CD1 mouse at 10 mg/kg, po by LC-MS/MS analysis; type: ADME, organism-based; parameters: dose 10 mg/kg, route oral; conditions: in vivo
[32] = AUCt in Sprague-Dawley rat at 100 mg/kg, po by LC-MS/MS analysis; type: ADME, organism-based; conditions: in vivo
[33] = Oral bioavailability in Sprague-Dawley rat at 10 mg/kg by LC-MS/MS analysis; type: ADME, organism-based; conditions: in vivo
[34] = Solubility of the compound in pH 1.2 gastric juice incubated at 37 degC for 24 hrs by LC/MS/MS analysis; type: physicochemical
[35] = Elimination half life in Beagle dog at 2.5 mg/kg, iv by LC-MS/MS analysis; type: ADME, organism-based, Canis lupus familiaris; conditions: in vivo, read-out: beta t1/2 (converted)
[36] = tested on: Staphylococcus aureus; test: Antibacterial activity against methicillin-sensitive Staphylococcus aureus infected in Kunming mouse dosed subcutaneously at 0.5 and 4.0 hrs postinfection and measured at 7 to 14 days post treatment by Bliss method; type: functional; conditions: sc
[37] = Oral bioavailability in Sprague-Dawley rat at 100 mg/kg by LC-MS/MS analysis; type: ADME, organism-based; conditions: in vivo
[38] = Volume of distribution at steady state in Sprague-Dawley rat at 10 mg/kg, iv by LC-MS/MS analysis; type: ADME, organism-based; conditions: in vivo, read-out: Vdss
[39] = AUCt in Sprague-Dawley rat at 10 mg/kg, po by LC-MS/MS analysis; type: ADME, organism-based; conditions: in vivo
[40] = target: Cytochrome P450 2C9 (Homo sapiens, UniProt P11712); test: Inhibition of CYP2C9 in human liver microsomes using tolbutamide as substrate preincubated for 10 mins followed by NADPH addition and measured for 15 mins by LC-MS/MS analysis; type: ADME
[41] = Solubility of the compound in water incubated at 37 degC for 24 hrs by LC/MS/MS analysis; type: physicochemical
[42] = AUCt in CD1 mouse at 10 mg/kg, po by LC-MS/MS analysis; type: ADME, organism-based; conditions: in vivo
[43] = Elimination half life in Sprague-Dawley rat at 10 mg/kg, iv by LC-MS/MS analysis; type: ADME, organism-based; conditions: in vivo, read-out: beta t1/2 (converted)
[44] = AUCt in Beagle dog at 5 mg/kg, po by LC-MS/MS analysis; type: ADME, organism-based, Canis lupus familiaris; conditions: in vivo
[45] = MRT in CD1 mouse at 10 mg/kg, po by LC-MS/MS analysis; type: ADME, organism-based; conditions: in vivo
[46] = tested on: Streptococcus pneumoniae; test: Antibacterial activity against penicillin-resistant Streptococcus pneumoniae after 18 to 20 hrs by CLSI-protocol based broth microdilution method; type: functional
[47] = Streptococcus pyogenes, read-out: MIC
[48] = Staphylococcus aureus, read-out: MIC

DNA gyrase, sequence (P0A0K8 whole entry): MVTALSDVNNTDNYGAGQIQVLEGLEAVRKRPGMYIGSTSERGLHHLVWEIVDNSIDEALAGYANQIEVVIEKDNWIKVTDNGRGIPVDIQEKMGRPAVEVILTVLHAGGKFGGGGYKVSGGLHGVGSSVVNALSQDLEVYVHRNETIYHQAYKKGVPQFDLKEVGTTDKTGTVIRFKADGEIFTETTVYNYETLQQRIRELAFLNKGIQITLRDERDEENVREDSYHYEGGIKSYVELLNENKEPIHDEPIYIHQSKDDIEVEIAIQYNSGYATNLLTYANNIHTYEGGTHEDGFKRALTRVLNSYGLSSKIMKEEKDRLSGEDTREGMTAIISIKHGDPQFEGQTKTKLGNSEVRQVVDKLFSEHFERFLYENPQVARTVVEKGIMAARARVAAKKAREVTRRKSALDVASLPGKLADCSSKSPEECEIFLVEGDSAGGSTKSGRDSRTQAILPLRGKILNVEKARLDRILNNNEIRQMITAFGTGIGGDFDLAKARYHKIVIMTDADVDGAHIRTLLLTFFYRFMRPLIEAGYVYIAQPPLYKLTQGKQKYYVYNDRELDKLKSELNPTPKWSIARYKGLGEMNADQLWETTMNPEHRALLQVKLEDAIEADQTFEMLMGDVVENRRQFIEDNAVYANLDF
DNA gyrase, sequence (P20831 whole entry): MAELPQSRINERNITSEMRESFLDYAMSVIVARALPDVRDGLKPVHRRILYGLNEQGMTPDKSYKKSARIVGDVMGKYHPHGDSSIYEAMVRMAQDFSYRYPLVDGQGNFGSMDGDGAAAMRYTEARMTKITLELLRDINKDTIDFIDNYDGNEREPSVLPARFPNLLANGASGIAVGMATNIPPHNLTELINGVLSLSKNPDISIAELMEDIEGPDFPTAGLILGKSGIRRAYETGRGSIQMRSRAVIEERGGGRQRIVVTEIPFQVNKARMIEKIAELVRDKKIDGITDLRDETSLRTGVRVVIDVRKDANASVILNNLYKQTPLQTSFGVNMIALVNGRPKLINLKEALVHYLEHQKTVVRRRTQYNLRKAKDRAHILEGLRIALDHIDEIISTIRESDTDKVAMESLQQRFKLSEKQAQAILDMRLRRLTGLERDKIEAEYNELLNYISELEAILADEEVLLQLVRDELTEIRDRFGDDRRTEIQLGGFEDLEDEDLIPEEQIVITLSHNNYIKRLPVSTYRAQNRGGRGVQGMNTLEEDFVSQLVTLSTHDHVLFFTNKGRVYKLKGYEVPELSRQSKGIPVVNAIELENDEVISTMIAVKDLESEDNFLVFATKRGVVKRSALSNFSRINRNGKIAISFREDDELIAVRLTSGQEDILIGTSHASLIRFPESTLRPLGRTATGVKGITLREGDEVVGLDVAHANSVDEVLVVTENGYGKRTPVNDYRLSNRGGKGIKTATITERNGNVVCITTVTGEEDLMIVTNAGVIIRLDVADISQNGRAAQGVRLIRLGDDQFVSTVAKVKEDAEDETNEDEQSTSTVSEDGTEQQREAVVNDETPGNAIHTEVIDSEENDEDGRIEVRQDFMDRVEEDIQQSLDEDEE
DNA topoisomerase 2-alpha, sequence (P11388 whole entry): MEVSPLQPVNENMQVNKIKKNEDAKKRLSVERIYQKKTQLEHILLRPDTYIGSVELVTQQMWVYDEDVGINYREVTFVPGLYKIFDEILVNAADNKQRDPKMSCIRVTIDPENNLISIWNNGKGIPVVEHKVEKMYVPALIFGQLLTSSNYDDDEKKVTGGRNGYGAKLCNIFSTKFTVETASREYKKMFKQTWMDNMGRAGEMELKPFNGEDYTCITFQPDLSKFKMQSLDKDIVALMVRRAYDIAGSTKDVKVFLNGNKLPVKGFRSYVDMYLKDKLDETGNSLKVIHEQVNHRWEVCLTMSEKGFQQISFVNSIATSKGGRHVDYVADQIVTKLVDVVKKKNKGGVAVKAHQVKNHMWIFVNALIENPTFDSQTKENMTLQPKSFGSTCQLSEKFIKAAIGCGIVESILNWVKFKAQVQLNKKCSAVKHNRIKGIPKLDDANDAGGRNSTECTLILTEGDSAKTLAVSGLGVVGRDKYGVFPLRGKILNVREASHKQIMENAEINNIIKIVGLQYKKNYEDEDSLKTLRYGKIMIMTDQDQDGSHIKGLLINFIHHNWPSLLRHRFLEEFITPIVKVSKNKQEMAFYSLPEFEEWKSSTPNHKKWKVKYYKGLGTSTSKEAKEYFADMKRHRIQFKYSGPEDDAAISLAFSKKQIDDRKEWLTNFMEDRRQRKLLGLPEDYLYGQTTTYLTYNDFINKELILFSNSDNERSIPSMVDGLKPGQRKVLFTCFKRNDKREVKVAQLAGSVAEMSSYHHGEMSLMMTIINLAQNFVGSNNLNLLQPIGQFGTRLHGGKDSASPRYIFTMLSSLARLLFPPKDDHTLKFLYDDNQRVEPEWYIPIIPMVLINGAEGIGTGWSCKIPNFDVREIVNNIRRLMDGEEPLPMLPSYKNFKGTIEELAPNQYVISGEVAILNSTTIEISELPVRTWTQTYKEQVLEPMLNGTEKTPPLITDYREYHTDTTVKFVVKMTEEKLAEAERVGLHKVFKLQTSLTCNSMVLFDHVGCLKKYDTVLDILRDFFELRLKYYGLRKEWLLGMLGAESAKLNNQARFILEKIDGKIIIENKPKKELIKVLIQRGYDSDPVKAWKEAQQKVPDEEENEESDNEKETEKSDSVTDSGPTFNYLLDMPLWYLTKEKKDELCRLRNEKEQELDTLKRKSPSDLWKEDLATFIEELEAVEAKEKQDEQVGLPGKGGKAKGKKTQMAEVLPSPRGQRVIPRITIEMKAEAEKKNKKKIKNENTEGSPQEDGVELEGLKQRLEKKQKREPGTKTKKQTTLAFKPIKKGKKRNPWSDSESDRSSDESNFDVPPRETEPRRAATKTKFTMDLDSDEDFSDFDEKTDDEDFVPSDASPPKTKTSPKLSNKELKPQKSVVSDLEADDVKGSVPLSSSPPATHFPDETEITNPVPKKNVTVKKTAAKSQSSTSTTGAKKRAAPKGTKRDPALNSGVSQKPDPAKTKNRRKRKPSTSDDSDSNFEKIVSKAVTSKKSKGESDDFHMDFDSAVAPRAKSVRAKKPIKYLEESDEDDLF
Voltage-gated inwardly rectifying potassium channel KCNH2, sequence (Q12809 whole entry): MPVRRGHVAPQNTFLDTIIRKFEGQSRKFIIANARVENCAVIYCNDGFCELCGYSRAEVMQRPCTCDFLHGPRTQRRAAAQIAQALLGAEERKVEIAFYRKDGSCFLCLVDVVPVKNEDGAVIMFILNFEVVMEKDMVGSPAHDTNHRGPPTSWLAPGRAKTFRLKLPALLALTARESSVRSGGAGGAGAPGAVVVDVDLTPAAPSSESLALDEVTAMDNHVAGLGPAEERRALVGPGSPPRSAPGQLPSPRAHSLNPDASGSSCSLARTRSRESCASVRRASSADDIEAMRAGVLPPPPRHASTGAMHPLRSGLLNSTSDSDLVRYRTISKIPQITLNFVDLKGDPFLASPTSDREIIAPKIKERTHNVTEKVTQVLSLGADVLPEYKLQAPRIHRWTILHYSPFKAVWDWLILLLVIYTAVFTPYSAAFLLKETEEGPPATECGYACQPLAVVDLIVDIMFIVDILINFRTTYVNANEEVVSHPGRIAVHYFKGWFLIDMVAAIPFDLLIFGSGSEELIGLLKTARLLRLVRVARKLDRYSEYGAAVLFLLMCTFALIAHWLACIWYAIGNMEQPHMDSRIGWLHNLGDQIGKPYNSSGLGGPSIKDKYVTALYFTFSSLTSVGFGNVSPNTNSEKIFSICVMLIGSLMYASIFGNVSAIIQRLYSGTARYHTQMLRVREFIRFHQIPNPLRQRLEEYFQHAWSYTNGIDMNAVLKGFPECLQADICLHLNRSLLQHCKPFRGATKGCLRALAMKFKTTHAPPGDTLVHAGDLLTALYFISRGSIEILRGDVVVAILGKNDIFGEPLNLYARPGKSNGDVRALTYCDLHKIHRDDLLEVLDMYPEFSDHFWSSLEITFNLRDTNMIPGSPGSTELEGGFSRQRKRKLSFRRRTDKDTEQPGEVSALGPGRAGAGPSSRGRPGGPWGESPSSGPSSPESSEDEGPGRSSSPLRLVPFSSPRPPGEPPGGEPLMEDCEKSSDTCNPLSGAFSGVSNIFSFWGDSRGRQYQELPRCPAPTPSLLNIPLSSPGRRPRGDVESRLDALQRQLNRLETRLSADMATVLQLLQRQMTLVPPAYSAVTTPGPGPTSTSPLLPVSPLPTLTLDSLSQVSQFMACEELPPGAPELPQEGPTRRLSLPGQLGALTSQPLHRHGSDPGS
T1 sequence (P08684 whole entry): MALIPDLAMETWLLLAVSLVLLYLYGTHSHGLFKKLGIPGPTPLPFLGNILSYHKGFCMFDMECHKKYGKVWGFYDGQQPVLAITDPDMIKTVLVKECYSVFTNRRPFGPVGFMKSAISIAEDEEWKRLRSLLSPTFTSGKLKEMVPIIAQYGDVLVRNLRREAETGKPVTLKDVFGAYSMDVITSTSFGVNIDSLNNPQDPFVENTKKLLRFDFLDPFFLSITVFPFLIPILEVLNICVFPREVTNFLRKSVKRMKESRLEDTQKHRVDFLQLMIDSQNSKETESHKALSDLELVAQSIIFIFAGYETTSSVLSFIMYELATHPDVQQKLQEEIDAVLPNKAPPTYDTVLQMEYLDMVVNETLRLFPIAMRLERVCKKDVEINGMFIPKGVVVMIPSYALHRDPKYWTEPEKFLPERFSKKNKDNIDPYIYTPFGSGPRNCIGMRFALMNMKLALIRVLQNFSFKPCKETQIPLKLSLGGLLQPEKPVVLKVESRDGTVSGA

COC[C@H]1CN(c2noc3c(F)c4c(cc23)CC2(C(=O)NC(=O)NC2=O)[C@H]2[C@H](C)O[C@H](C)CN42)C(=O)S1
MIC [1]: < 0.03 µg/mL
MIC [2]: 0.03 to 0.5 µg/mL (≈ 0.0562 to 0.937 µM)
MIC50 [3]: 0.25 µg/mL (≈ 0.469 µM)
MIC90 [3]: 0.5 µg/mL (≈ 0.937 µM)
IC50 [4]: > 200 µM
MIC [5]: 0.03 to 0.125 µg/mL (≈ 0.0562 to 0.234 µM)
IC50 [6]: > 40 µM
IC50 [7]: 9.4 µM
MIC [8, 47]: 0.25 to 0.5 µg/mL (≈ 0.469 to 0.937 µM)
MIC [9, 48]: 0.03 to 0.25 µg/mL (≈ 0.0562 to 0.469 µM)
Tmax [10]: 0.58 h

CC[C@H]1CN(c2noc3c(F)c4c(cc23)CC2(C(=O)NC(=O)NC2=O)[C@H]2[C@H](C)O[C@H](C)CN42)C(=O)S1
MIC [1]: < 0.03 µg/mL
MIC [2]: < 0.03 µg/mL
IC50 [4]: 128 µM
IC50 [7]: 9.1 µM
MIC [8, 47]: < 0.03 µg/mL
MIC [9, 48]: < 0.03 µg/mL

C[C@@H]1CN2c3c(cc4c(N5CC6(CC6)OC5=O)noc4c3F)CC3(C(=O)NC(=O)NC3=O)[C@H]2[C@H](C)O1
clearance [11]: 1.57 mL/min/kg
solubility at 24 h [12]: 204 µM (≈ 102 µg/mL)
Cmax [13]: 35400 ng/mL
IC50 [14]: > 25 µM
clearance [15]: 4.91 mL/min/kg
half-life [16]: 3.65 h
IC50 [17]: > 25 µM
ED50 [18]: 3.87 mg/kg
Cmax [19]: 2860 ng/mL
IC50 [20]: > 25 µM
AUC(0-t) [21]: 9100 ng·h/mL
Cmax [22]: 2260 ng/mL
MIC50 [3]: 0.06 µg/mL (≈ 0.12 µM)
MIC90 [3]: 0.125 µg/mL (≈ 0.25 µM)
Vd [23]: 1 L/kg
bioavailability [24]: 96.6%
IC50 [25]: > 25 µM
IC50 [4]: > 200 µM
IC50 [26]: 13 µM
half-life [27]: 6.2 h
half-life [28]: 3.71 h
half-life [29]: 5.58 h
AUC(0-t) [30]: 104000 ng·h/mL
Cmax [31]: 2580 ng/mL
AUC(0-t) [32]: 478000 ng·h/mL
bioavailability [33]: 22.6%
solubility at 24 h [34]: 151 µM (≈ 75.4 µg/mL)
half-life [35]: 3.49 h
ED50 [36]: 8.37 mg/kg
IC50 [6]: > 40 µM
bioavailability [37]: 45.8%
Vd [38]: 0.482 L/kg
AUC(0-t) [39]: 23600 ng·h/mL
IC50 [40]: > 25 µM
solubility at 24 h [41]: 277 µM (≈ 138 µg/mL)
IC50 [7]: 7.8 µM
AUC(0-t) [42]: 24200 ng·h/mL
half-life [43]: 3.82 h
AUC(0-t) [44]: 17500 ng·h/mL
MIC [8]: <0.03 µg/mL
MIC [9, 48]: ≤ 0.03 µg/mL
MRT [45]: 8.94 h
Tmax [10]: 2.67 h

C[C@@H]1CN2c3c(cc4c(N5CC6(CCC6)OC5=O)noc4c3F)CC3(C(=O)NC(=O)NC3=O)[C@H]2[C@H](C)O1
MIC [1]: 0.03 to 0.25 µg/mL (≈ 0.0584 to 0.487 µM)
MIC [46]: 0.25 to 1 µg/mL (≈ 0.487 to 1.95 µM)
MIC [2]: 0.06 to 1 µg/mL (≈ 0.117 to 1.95 µM)
IC50 [4]: > 200 µM
MIC [5]: 0.06 to 0.25 µg/mL (≈ 0.117 to 0.487 µM)
IC50 [7]: 15.6 µM
MIC [8, 47]: 0.25 to 0.5 µg/mL (≈ 0.487 to 0.974 µM)
MIC [9, 48]: 0.125 to 0.25 µg/mL (≈ 0.243 to 0.487 µM)

C[C@@H]1CN2c3c(cc4c(N5CCOCC5)ncnc4c3F)CC3(C(=O)NC(=O)NC3=O)[C@H]2[C@H](C)O1 (racemic)
MIC [1]: inactive
MIC [46]: inactive
MIC [2]: inactive
MIC [5]: inactive
MIC [8]: inactive
MIC [9]: inactive

C[C@@H]1CN2c3c(cc4c(N5C(=O)OC[C@@H]5C)noc4c3F)CC3(C(=O)NS(=O)(=O)NC3=O)[C@H]2[C@H](C)O1
MIC [1]: inactive
MIC [46]: inactive
MIC [2]: inactive
MIC [5]: inactive
MIC [8]: inactive
MIC [9]: inactive
